Molecules are shown by their SMILES. Where “and” joins values, the source holds several entries; their conditions need not be identical. Equal values may be shown once. Read-outs that look alike come from different tables or passages of the source.

Data on three molecules can be found in PMC3465710 (Biochemistry, 2011).

Test [1] deals with T1, GLUT1 (Homo sapiens, UniProt P11166).
T1 sequence (P11166 1-492): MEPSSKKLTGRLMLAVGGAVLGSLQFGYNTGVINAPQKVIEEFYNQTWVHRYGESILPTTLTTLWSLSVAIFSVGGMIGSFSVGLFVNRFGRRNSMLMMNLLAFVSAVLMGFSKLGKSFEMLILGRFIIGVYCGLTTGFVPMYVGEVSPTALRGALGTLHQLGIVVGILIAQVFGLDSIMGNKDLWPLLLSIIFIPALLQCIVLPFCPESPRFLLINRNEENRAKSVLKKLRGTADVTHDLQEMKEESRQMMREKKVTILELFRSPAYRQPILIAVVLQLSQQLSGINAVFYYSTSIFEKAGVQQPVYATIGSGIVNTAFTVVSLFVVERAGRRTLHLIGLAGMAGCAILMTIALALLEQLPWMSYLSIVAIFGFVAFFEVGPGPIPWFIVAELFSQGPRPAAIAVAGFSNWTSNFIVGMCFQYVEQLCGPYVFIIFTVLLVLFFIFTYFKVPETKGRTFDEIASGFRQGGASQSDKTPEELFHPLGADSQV
In kind it is binding. Conditions: for β (cooperativity parameter, second inhibitor molecule) / γ (hetero-cooperativity parameter) / Inhibition (type of modulation of CB binding) / Ki: 50 nM [3H]-CB; for β (cooperativity parameter, second inhibitor molecule) / γ (hetero-cooperativity parameter): eqn 6; for Inhibition (type of modulation of CB binding): competing ligand 0 to 100 μM; for α (homo-cooperativity factor): CB inhibition of [3H]-CB binding; for ΔG°: calculated as RT ln(1/KI); for β*γ: product.

Test [2] has as its target T1, GLUT1. To be noted: 4°C; cited from earlier work.
Test [3] deals with [3H]-CB binding to red cell membranes. Conditions: cited from earlier work.
The target of test [4] is T1, GLUT1.
Test [5] addresses T2, GLUT1-mediated sugar transport in red cells (Homo sapiens, UniProt P11166).
T2 sequence (P11166 1-492): T1 sequence (P11166 1-492)
Nature of the test: Zero-trans 3-O-methylglucose uptake in red cells. In kind it is cell-based.

For test [6], the target named is T1, GLUT1. Nature of the test: biochemical.
Test [7] concerns the target T2, GLUT1-mediated sugar transport in red cells. Nature of the test: Equilibrium exchange 3-O-methylglucose uptake in red cells. In kind it is cell-based.
The mark [8] stands for this setting: Ki (affinity of unoccupied GLUT1 for ligand), 4°C, eqn 6, iterative free [I].
The mark [9] stands for this setting: Ki, eqn 6, values in text or legends.

Take `C=C1[C@@H](C)[C@H]2[C@H](Cc3ccccc3)NC(=O)[C@]23OC(=O)/C=C/[C@H](O)CCC[C@@H](C)C/C=C/[C@H]3[C@@H]1O` [CCB, Cytochalasin B]: at GLUT1 [1] (4°C), the “β (cooperativity parameter, second inhibitor molecule)” value worked out at 6.284 ± 3.849; the “γ (hetero-cooperativity parameter)” value was determined as 6.284 ± 3.849; the “α (homo-cooperativity factor)” value is recorded as 6.284 ±3.849. Further, at GLUT1 [1] (4°C, listed as CB), the “β (cooperativity parameter, second inhibitor molecule)” value came to 6.3; the “γ (hetero-cooperativity parameter)” value worked out at 6.3; the “α (homo-cooperativity factor)” value was found to be 6.284 ± 0.558. Also, on GLUT1 [1], the “Inhibition (type of modulation of CB binding)” value amounted to 1, the “ΔG°” value was -8.88 kcal/mol and the “β*γ” value is recorded as 39. In addition, the α on GLUT1 [1] (fit versus measured free CB) amounted to 5.441 ± 0.558. The same molecule returned a α on GLUT1 [1] (fit versus simulated free CB) of 7.01 ± 0.53. The molecule further registered a α at GLUT1 [1] (fit versus total CB) of 10.0 ± 1.0. For the same molecule, the “time constant of binding to GLUT1” value on GLUT1 [2] is 1 s. In test [3], the “inhibition of CB binding” value is reported as “high affinity”.

The term Kd denotes the equilibrium constant for the complex coming apart. On to `C[C@H]1C/C=C/[C@H]2[C@@H]3O[C@]3(C)[C@@H](C)[C@H]3[C@H](Cc4ccccc4)NC(=O)[C@]32OC(=O)O/C=C/[C@@](C)(O)C1=O` [CCE, Cytochalasin E], for which, at GLUT1 [1] (4°C), the “β (cooperativity parameter, second inhibitor molecule)” value turned out to be 7917 ± 2935 and the “γ (hetero-cooperativity parameter)” value is given as 0.555 ± 0.016. Moreover, at GLUT1 [1], the “Inhibition (type of modulation of CB binding)” value amounted to 3, the “ΔG°” value is -8.88 kcal/mol and the “β*γ” value came out at 4394. The same molecule came in with a dissociation constant (Kd) at GLUT1 [1] (KL (Table 2, taken from Table 1), cytochalasins, rounded values) of 100 nM. The same molecule returned a Ki at GLUT1 [1] (setting [8]) of 99 ± 8 nM. The Ki at GLUT1 [1] (setting [9]) was determined as 100 nM. Besides, on GLUT1 [1] (change in ΔG° relative to baseline cytochalasin or forskolin), the “ΔΔG°” value came out at 0.01 kcal/mol. The Ki in test [3] (read-out: Ki(app) for inhibition of [3H]-CB binding, red cell membranes) was no less than 100000 nM.

For the molecule `C=C[C@@]1(C)CC(=O)[C@]2(O)[C@@]3(C)[C@@H](O)CCC(C)(C)[C@@H]3[C@H](O)[C@H](OC(C)=O)[C@@]2(C)O1` [FSK, forskolin], the “β (cooperativity parameter, second inhibitor molecule)” value on GLUT1 [1] (4°C) is reported as 1.54 ± 0.73. The “γ (hetero-cooperativity parameter)” value at GLUT1 [1] (4°C) is 0.93 ± 0.10 and 0.930 ± 0.103 and 0.9; at GLUT1 [1] (4°C, listed as forskolin), 0.93. Besides, the “Inhibition (type of modulation of CB binding)” value at GLUT1 [1] is 1. Further, the Ki on GLUT1 [1] (setting [8]) worked out at 3280 ± 960 nM; at GLUT1 [1] (setting [9]), 3280 ± 980 nM; in test [5], 1900 ± 400 nM; in test [7], 1200 ± 600 nM. On GLUT1 [1], the “ΔG°” value was -6.95 kcal/mol. Moreover, the “β*γ” value on GLUT1 [1] is 1. Further, at GLUT1 [4], the “Kd for forskolin binding relative to Kd for CB binding” value is reported as “at least 20 fold”. Further, the “α (homo-cooperativity factor)” value on GLUT1 [4] (FSK inhibition of [3H]-FSK binding, 4°C) was found to be 2.43 ± 0.23. For the same molecule, the α was 2.400 ± 0.212 on GLUT1 [4] (fit versus measured free FSK), 2.434 ± 0.235 on GLUT1 [4] (fit versus simulated free FSK) and 2.383 ± 2.116 on GLUT1 [4] (fit versus total FSK). In test [5] (human erythrocytes), the “mode of inhibition of net sugar uptake” value is on record as “noncompetitive inhibitor”. Moreover, the “Kmapp for 3MG uptake in presence of inhibitor” value in test [5] (zero-trans, 2 μM FSK) was 1.09 ± 0.15 mM; in test [7] (equilibrium exchange, 2 μM FSK), 48.5 ± 7.3 mM. Also, the “Vmax for 3MG uptake in presence of inhibitor” value in test [5] (zero-trans, 2 μM FSK) was 0.055 ± 0.004 mM/L/min; in test [7] (equilibrium exchange, 2 μM FSK), 8.3 ± 0.7 mM/L/min. The equilibrium dissociation constant (Kd) stood at 2750 ± 787 nM on GLUT1 [6] (KL, FSK inhibition of [3H]-FSK binding (50 nM), 4°C, eqn 7, assumes α = β = γ); 2830 ± 754 nM at GLUT1 [6] (Kl, fit versus measured free FSK); 3330 ± 893 nM on GLUT1 [6] (Kl, fit versus total FSK). Moreover, the “mode of inhibition of exchange sugar uptake” value in test [7] (human erythrocytes) was “competitive inhibitor”.
